Assay results published in patent US8686028B2, “Substituted benzfurochromenes and related compounds for the prevention and treatment of bone related disorders” (Council of Scientific & Industrial Research, priority 2008, dated 2014).
One block for each molecule: values may come before it.

Tests used:
[1] = system: Calvarial osteoblast cells; assay: MTT cell proliferation assay; format: cell-based, rat; details: 10^−10 M to 10^−6M, 24 hrs
Description: (§1) Neonatal rat calvarial cell cultures are prepared as described previously (Endocrinology 145:3451) using slight modification. Briefly, for primary osteoblast cell cultures, frontal and parietal bones from Sprague-Dawley rat neonates (1-3 day old) are digested in 0.1% collagenase/0.1% dispase in α-MEM to obtain 5 sequential digests. The second through fifth digests are combined and grown to confluence at 37° C. and 5% CO2 in air in α-MEM, supplemented with 10% fetal bovine serum (FBS), 2 mM glutamine, 100 U/ml penicillin-streptomycin, Non-essential amino acid solution and sodium pyruvate.
MTT [3-(4,5-dimethylthiazol-2-yl)-2,5-diphenyltetrazolium bromide] assay, first described by Mosmann in 1983, is based on the ability of a mitochondrial dehydrogenase enzyme from viable cells to cleave the tetrazolium rings of the pale yellow MTT and form a dark blue formazan crystals which is largely impermeable to cell membranes, thus resulting in its accumulation within healthy cells. Solubilisation of the cells by the addition of a detergent results in the liberation of the crystals which are solubilized. The number of surviving cells is directly proportional to the level of the formazan product created. The color can then be quantified using a simple colorimetric assay. The results can be read on a multiwell scanning spectrophotometer (Mosmann T. Rapid colorimetric assay for cellular growth and survival: application to proliferation and cytotoxicity assays. J Immunol Methods. 1983 Dec. 16; 65(1-2):55-63).
Calvarial osteoblast cells plated at a density of 2.0×10^3 cells/200 ul in 96 wells plates. Cells were grown to 60% confluency and then treated with following compounds S006-1709, S006-1710, 5006-1711, S006-1713 and; S006-1714 at concentrations ranging from 10^−10 M to 10^−6M for 24 hrs. After treatment media was removed and 10 mM MTT was added solution in phenol red free DMEM media. After an incubation of 4 hrs the MTT solution was removed. Blue colored crystals were formed which were dissolved in DMSO and absorbance was read on ELISA plate reader at 570 nm wavelength.

[2] = system: ovariectomized immature female rats; assay: Estrogenicity, uterine fresh weight in ovariectomized immature female rats; format: in vivo, rat; details: three consecutive days, vehicle 16.46
Description: (§2) 21 day old immature female rats (25-30 grams) were ovariectomized and given 7 days post-operative rest. Thereafter they were treated orally with the test agent (10 mg/Kg body weight) or with vehicle or Ethynyl estradiol, the reference standard for three consecutive days. For anti-estrogenicity, other than the test chemical, ethynyl estradiol (0.01 mg/kg) was given at 15 minutes interval before the test chemical. Autopsy was done 24 h after last treatment and uterine fresh weight was taken.

[3] = system: ovariectomized immature female rats; assay: Anti-estrogenicity, uterine fresh weight with ethynyl estradiol co-treatment; format: in vivo, rat; details: 10 mg/Kg oral plus ethynyl estradiol 0.01 mg/kg
Description: as §2

[4] = system: Immature 21 d old female SD rat; assay: In vivo efficacy, BMD in immature female SD rats; details: 10 mg/kg daily, one month; vehicle = 100
Description: Immature 21 d old female SD rat model was chosen, animals were randomized into four groups and treated with a daily dose of test agent or vehicle for one month and autopsied on day 31.
[…], the animals were shifted to metabolic cage for acclaimatization for 24 h with food and water. Post acclaimatization animals were further left in metabolic cage for 24 h with water but no food. Blood and urine samples were collected after 24 h. Various biochemical parameters like serum calcium, serum phosphorus, serum osteocalcin, serum alkaline phosphatase (ALP) were evaluated. The animals were autopsied on day 31 and lumbar vertebrae, femur and tibia bones were isolated, cleaned and fixed in 70% ethanol in saline and stored at 4° C. until BMD measurement. Initial and final body weight and uterine weight at autopsy were recorded. BMD measurements of region of interest (lumbar: global, L1-L4; femur: global, neck and mid-shaft; tibia: global, proximal and tibio-fibula junction point) was performed using a bone densitometer (Model 4500 Elite, Hologic) fitted with commercially available software (QDR 4500 ACCLAIM series) for a fan-beam DXA system that permits determination of bone densitometry and measurement of body composition in small animals in vivo.

[5] = Pharmacokinetic studies in Sprague Dawley rats; format: in vivo; details: rat, plasma, SD rats, oral dose of 5 mg/kg
Description: In-vivo pharmacokinetic parameters were generated in Sprague Dawley rats at a dose of 5 mg/kg by oral route of administration. The blood samples were drawn at 0.25, 0.5, 0.75, 1.0, 1.5, 2.0, 2.5, 4.0, 6, 8, 10, 12, 18, 24, 28, 36 and 48 hours, processed and analyzed by Liquid Chromatography-Mass Spectrometry (LC-MS). Plasma concentration at different time points were plotted to give Plasma Concentration Time Profile and the data was fitted non-compartmentally using Win NonLin 5.1 version software and the estimates of pharmacokinetic parameters were derived with SD mean values.

Calvarial osteoblasts = assay: Alkaline phosphatase (ALP) activity for osteoblast differentiation, calvarial osteoblasts; format: cell-based, rat; details: for stimulation of ALP activity: osteoblasts, concentrations not given
Description: as §1
70 to 80% confluent Calvarial osteoblasts were treated with μM S006-1709 for 48 h in the presence of ascorbate and glycerophosphate. At the end of incubation period, total ALP activity was measured with a method using p-nitrophenylphosphate (PNPP) as substrate. The reaction mixture contained diethanolamine buffer (1 mol/L, pH 9.8), 0.5 mmol/L MgCl2.6H2O, and 10 mmol/L PNPP. ALP activity was measured by taking OD of the amount of colored product formed by the dephosphorylation of PNPP at 405 nm. […] In addition, the effect of S006-1709 on mineralization of calvarial osteoblasts was studied.
We then studied its effect in osteoblast differentiation in both calvarial and bone marrow osteoblasts. Confluent calvarial osteoblasts (70 to 80%) were treated with S006-1710 for 48 h in the presence of ascorbate and glycerophosphate at concentrations ranging from 10^−16M to 10^−6M. At the end of incubation period, total ALP activity was measured with the same method used previously using p-nitrophenylphosphate (PNPP) as substrate.
70 to 80% confluent Calvarial osteoblasts were treated with S007-1351 for 48 h in the presence of ascorbate and glycerophosphate. At the end of incubation period, total ALP activity was measured with a method using p-nitrophenylphosphate (PNPP) as substrate. The reaction mixture contained diethanolamine buffer (1 mol/L, pH 9.8), 0.5 mmol/L MgCl2.6H2O, and 10 mmol/L PNPP. ALP activity was measured by taking OD of the amount of colored product formed by the dephosphorylation of PNPP at 405 nm.
70 to 80% confluent calvarial osteoblasts were treated with S007-1352 for 48 h in the presence of ascorbate and glycerophosphate at concentrations ranging from 10^−12M to 10^−6 M. At the end of incubation period, total ALP activity was measured with the same method used previously using p-nitrophenylphosphate (PNPP) as substrate.

3T3-L1 cells = assay: Anti-adipogenic effect (Oil Red O) in 3T3-L1 cells; format: cell-based, mouse; details: 3T3L1, both concentrations (10^−10 M and 10^−12M)
Description: The best characterized model of adipogenesis in vitro is the 3T3-L1 cell line, a substrain of Swiss 3T3 mouse cell line. 3T3-L1 cells propagated under normal conditions have a fibroblastic phenotype. However, when treated with a combination of dexamethasone, isobutylmethylxanthine (IBMX or MIX) and insulin, 3T3-L1 cells adopt a rounded phenotype and within 5 days begin to accumulate lipids intracellularly in the form of lipid droplets.
3T3-L1 cells were plated in 48-well plates 40,000 cells/well. The cells were incubated in DMEM containing fetal calf serum for 2 days until the cells become confluent. The cells were then incubated with Adipogenesis initiation media which contains DMEM with 10% FCS, IBMX and dexamethasone for 48 hrs at 37° C., 5% CO2. After two days the media was replaced with Adipogenesis Progression media which contains DMEM/10% FCS and insulin for 48 hrs at 37° C., 5% CO2, Media was again changed gently to Adipogenesis maintenance media for 48 hrs at 37° C., 5% CO2. At the end of eight days of experiment the cells were fixed and then stained with Oil Red O which stains lipid droplets. The dye was extracted and extracted dye was transferred to a 96-well plate and absorbance of extracted Oil Red O was measured in a plate reader at 490 nm.
Compounds S006-1709, S007-1351-53, S007-1495 and S007-1500 were tested in vitro in 3T3L1 cell line at two concentrations 10^−10 M and 10^−12M. FIG. 8A depicts the adipocytes formed at the end of the 8 day experiment. The fixed cells were stained with Oil Red O. The dye was then extracted and quantified.

Structure (SMILES): Oc1ccc2c(c1)OCC1c3ccccc3OC21 (stereo not drawn) [Compound S006-1709, 6a,11a-Dihydro-6H-benzo[4,5]furo[3,2-c]chromen-3-ol]
effect on osteoblast proliferation (MTT) [1]: no effect | Estrogenic Activity (uterine fresh weight) ([2]; 10 mg/Kg oral): 15.8 | Anti-Estrogenic Activity (uterine fresh weight) [3]: 96.86 | Anti-Estrogenic Activity, % (second line of cell) ([3]; relative to ethynyl estradiol): −1.5%^ | Change in BMD, Femur Global [4]: 138.75 | Change in BMD, Femur Neck [4]: 141 | Change in BMD, Femur Shaft [4]: 167 | Change in BMD, Lumber Vertebra Global [4]: 120 | Change in BMD, Lumber Vertebra LV1 [4]: 126 | Change in BMD, Lumber Vertebra LV2 [4]: 124 | Change in BMD, Lumber Vertebra LV3 [4]: 90.3 | Change in BMD, Lumber Vertebra LV4 [4]: 125 | Change in BMD, Tibia Global [4]: 133 | Change in BMD, Tibia Head [4]: 115 | Change in BMD, Tibia TFSP [4]: 124 | AUC ([5]; read-out: Area under curve (AUC)): 32.1 ± 12 ng·h/mL | Cmax ([5]; read-out: Maximum plasma concentration (Cmax)): 17.5 ± 1.76 ng/mL | half-life ([5]; read-out: elimination half life (T1/2) (converted)): 2.5 h | MRT ([5]; read-out: mean residence time (MRT)): 3.5 h | Tmax ([5]; read-out: time to achieve maximum plasma concentration (tmax) (converted)): 0.25 h | melting point: 148 to 152 °C

Structure (SMILES): COc1ccc(-c2coc3cc(O)ccc3c2=O)c(OC)c1 [Compound S006-1713, 3-(2,4-Dimethoxy-phenyl)-7-hydroxy-chromen-4-one]
effect on osteoblast proliferation (MTT) [1]: did not have any effect | stimulation of ALP activity (Calvarial osteoblasts): non-significant

Structure (SMILES): COc1ccc(-c2coc3cc(O)ccc3c2=O)c(O)c1 [Compound S006-1714, 7-Hydroxy-3-(2-hydroxy-4-methoxy-phenyl)-chromen-4-one]
effect on osteoblast proliferation (MTT) [1]: did not have any effect | stimulation of ALP activity (Calvarial osteoblasts): non-significant | melting point: 210 to 212 °C

Structure (SMILES): O=c1c(-c2ccccc2O)coc2c(O)c(O)ccc12 [Compound S007-1351, 7,8-Dihydroxy-3-(2-hydroxy-phenyl)-chromen-4-one]
osteoblast ALP activity vs vehicle control (Calvarial osteoblasts; calvarial osteoblasts, 48 h, 10^−12M to 10^−6M): significant increase | effect on adipogenesis (3T3-L1 cells): inducers of adipogenesis | melting point: 240 to 242 °C

Structure (SMILES): O=c1c(-c2ccccc2O)coc2cc(O)c(Cl)cc12 [Compound S007-1354, 6-Chloro-7-hydroxy-3-(2-hydroxy-phenyl)-chromen-4-one]
stimulation of ALP activity (Calvarial osteoblasts): non-significant | melting point: > 250 °C

Structure (SMILES): COc1ccccc1-c1coc2cc(O)c(Cl)cc2c1=O [Compound S007-1355, 6-Chloro-7-hydroxy-3-(2-methoxy-phenyl)-chromen-4-one]
stimulation of ALP activity (Calvarial osteoblasts): non-significant | melting point: 228 to 230 °C

Structure (SMILES): C#C[C@]1(O)CC[C@H]2[C@@H]3CCc4cc(O)ccc4[C@H]3CC[C@@]21C [Ethnyl Estradiol, Ethynyl estradiol, reference compound]
Estrogenic Activity (uterine fresh weight) ([2]; reference standard, 0.01 mg/Kg): 98.3

Results, then the molecule that gave them:

stimulation of ALP activity (Calvarial osteoblasts): non-significant | melting point: 196 to 198 °C
Structure (SMILES): Cc1c(O)ccc2c(=O)c(-c3ccccc3O)coc12 [Compound S007-1498, 7-Hydroxy-3-(2-hydroxy-phenyl)-8-methyl-chromen-4-one]

stimulation of ALP activity (Calvarial osteoblasts): non-significant | melting point: 160 to 162 °C
Structure (SMILES): Cc1c(O)ccc2c1OCC1c3ccccc3OC21 (stereo not drawn) [Compound S007-1499, 4-Methyl-6a,11a-dihydro-6H-benzo[4,5]furo[3,2-c]chromen-3-ol]

stimulation of ALP activity (Calvarial osteoblasts): non-significant
Structure (SMILES): Cc1c(OCC#N)ccc2c1OCC1c3ccccc3OC21 (stereo not drawn) [Compound S007-1501, (4-Methyl-6a,11a-dihydro-6H-benzo[4,5]furo[3,2-e]chromen-3-yloxy)-acetonitrile]

melting point: 96 to 98 °C
Structure (SMILES): CC(C)Oc1ccc2c(c1)OCC1c3ccccc3OC21 (stereo not drawn) [Compound S-008-0398, 3-Isopropoxy-6a,11a-dihydro-6H-benzofuro[3,2-c]chromene]

melting point: 202 to 204 °C
Structure (SMILES): c1ccc2c(c1)OC1c3ccc(OCCN4CCCCC4)cc3OCC21 (stereo not drawn) [Compound S-008-0399, 1-(2-(6a,11a-Dihydro-6H-benzofuro[3,2-c]chromen-3-yloxy)ethyl)piperidine]

melting point: 72 to 74 °C
Structure (SMILES): C=CCOc1ccc2c(c1)OCC1c3ccccc3OC21 (stereo not drawn) [Compound S-008-0625, 3-(Allyloxy)-6a,11a-dihydro-6H-benzofuro[3,2-c]chromene]
